In paper PMC8931317 (Proceedings of the National Academy of Sciences of the …, 2022):

Target: T1, YeiE (CsYeiE) (Cronobacter sakazakii, UniProt H9BVC9)
T1 sequence (H9BVC9 85-288): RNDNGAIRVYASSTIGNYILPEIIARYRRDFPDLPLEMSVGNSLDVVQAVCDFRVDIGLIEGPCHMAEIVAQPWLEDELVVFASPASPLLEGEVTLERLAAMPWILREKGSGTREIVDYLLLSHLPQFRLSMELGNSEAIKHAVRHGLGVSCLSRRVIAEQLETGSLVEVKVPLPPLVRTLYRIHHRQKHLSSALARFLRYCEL
Experiment: ITC
Assay type: binding

## O=S(O)O [sulfite]
  Kd: 1380 nM
